Like-named read-outs stand apart in the source and are kept apart here.

For one test, the target named is T1, immobilized IL-2 (Homo sapiens, UniProt P60568).
T1 construct: made in house; host or cells: E. coli
The experiment in a line: Double ligand SPR on immobilized interleukin-2 (Examples 9-11). The format is binding. As to the method: A CM5 sensor chip (Biacore-BR-1000-14) is docked in a Biacore 2000 SPR device and normalized using a standard Biacore protocol with 70% glycerol. The chip is next equilibrated in PBS for approximately 1 hr at a 20 μL/min flow rate. The dextran surface of the chip is activated through an NHS/EDC coupling. This coupling is done using an amine coupling kit (Biacore—BR-100-50) containing N-hydroxysuccinimide (NHS 11.5 mg/mL) and N-ethyl-N′-(3-dimethylaminopropyl) carbodiimide hydrochloride (EDC 75 mg/mL). First, the two reagents are mixed in a 1:1 ratio and then 35 μL of the mixture are injected at 5 μL/min. The chip is activated one flow cell at a time, and that flow cell is subsequently labeled with protein.
IL-2 is expressed in E. coli cells and purified using standard procedures. Protein is then concentrated to 100 μM and the buffer is exchanged to 100 mM MES pH 5.75 (Nap-5 column, Pierce). A sensorgram is then run over the activated flow cell at 2,L/min of PBS. The IL-2 solution is then injected at 2 μL/min for 10 min. After injection the change in RUs is measured by marking the RUs at t=0 and t=final and subtracting. This gives the total RU change, which is related to the total mass of protein successfully coupled to the CM5 surface. The total mass will later be used to determine stoichiometry of binding. This procedure is then repeated with another arbitrary protein to create a measure for nonspecific binding. The arbitrary protein is immobilized on an adjacent cell. […] The sensorgram is then altered to flow across all four cells on the CM5 chip at 5 μL/min PBS. A solution of 1 M ethanolamine hydrochloride-NaOH pH 8.5 (Amine coupling kit, Biacore-BR-100-50) is injected at 5 μL/min for 7 min. Proteins are immobilized at densities of 100-160 fmol/mm^2. The chip is equilibrated overnight in PBS+0.05% azide+2% DMSO at 20 μL/min.
In this experiment, variable concentrations of a compound are tested at a constant concentration of another compound. The compound held constant is 2c, for example (structure shown in Example 2). To determine appropriate constant concentrations for 2c, a compound titration is first performed. Dilution series of the compounds are typically performed to produce seven solutions having final compound concentrations of 30 mM, 10 mM, 3.3 mM, 1.1 mM, 0.37 mM, 0.12 mM, and 0.041 mM; an eighth solution is a DMSO-only baseline. The compounds are then diluted into PBS+0.05% azide to final concentrations of 300 μM, 100 μM, 33 μM, 11 μM, 3.7 μM, 1.2 μM, 0.41 μM. The compound solutions are injected from lowest concentration to highest at 40 μL/min for 1 min. The SPR software method includes a 1 min wash before injection, the injection and then a 3 min wash after the injection.
These dilution series are analyzed by BIAevaluation software version 3.0. Sensorgrams are plotted for compound binding to the IL-2 labeled cell of the chip. The sensorgrams are modified by subtracting the sensorgrams for the appropriate compound dilutions over cell 1 (a blank cell). This subtraction step removes any RU changes that might occur due to non-specific interactions between the compound and the chip itself or refractive changes in the buffer. Finally, the eight sensorgrams produced from the compound dilution series are zeroed at the average of their starting RUs. Then the sensorgram produced by injecting DMSO only is subtracted to reveal the final sensorgrams used to determine relative binding.
To determine KdSPR for the compound, the compound concentration is plotted on the X-axis, while the fraction bound at the plateau of the injection is plotted on the Y-axis. The curve is then analyzed via non-linear regression analysis (Kaleidagraph, Synergy Software). […] The concentration chosen is where the RUs remain constant at the top of the binding curve and thus the IL-2:2c ratio is 1. For 2c, this concentration is 100 μM.
A second compound is then run, this time in both the presence and absence of 2c. […]

Test [1] concerns the target T2, human interleukin-1 receptor type 1 (Homo sapiens, UniProt P14778).
T2 construct: soluble human II-1 R was allowed to flow over the surface; made in house; host or cells: baculovirus-infected TN-5B1-4 insect cells (High Five)
T2 sequence (P14778 18-336 limits assumed): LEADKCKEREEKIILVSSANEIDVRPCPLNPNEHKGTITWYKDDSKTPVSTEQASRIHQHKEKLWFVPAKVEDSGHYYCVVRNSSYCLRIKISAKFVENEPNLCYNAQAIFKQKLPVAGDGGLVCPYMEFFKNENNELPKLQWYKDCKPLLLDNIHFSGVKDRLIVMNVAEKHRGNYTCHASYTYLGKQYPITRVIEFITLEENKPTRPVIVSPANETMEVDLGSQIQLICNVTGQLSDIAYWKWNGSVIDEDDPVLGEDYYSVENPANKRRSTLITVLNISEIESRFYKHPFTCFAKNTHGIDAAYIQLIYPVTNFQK
Briefly: SPR inhibition of binding of soluble IL-1 R to an immobilized peptide ligand (Examples 12-13). The following applies: for IC50: inhibition of binding of IL-1 R to the immobilized peptide […]. The procedure:
A CM5 sensor chip (Biacore-BR-1000-14) is docked in a Biacore 2000 SPR device. The chip is then normalized using standard Biacore protocol with 70% glycerol. The chip is next equilibrated in PBS for approximately 1 hr at 20,L/min flow rate. The dextran surface of the chip is activated through an NHS/EDC coupling. This coupling is done using an amine coupling kit (Biacore—BR-100-50) containing N-hydroxysuccinimide (NHS 11.5 mg/mL) and N-ethyl-N′-(3-dimethylaminopropyl) carbodiimide hydrochloride (EDC 75 mg/mL). The two reagents are mixed in a 1:1 ratio and 35 μL of the mixture are injected at 5 μL/min. The activated chip is then modified with a cysteine reactive group, to enable labeling of the CM5 chip with cysteine chemistry. A solution of 100 μM MTSL in PBS is injected at 2 μL/min for 10 min over the activated cell.
A peptide that is a nanomolar inhibitor for the protein of interest was synthesized at Synpep, to include a cysteine residue at the N-terminus. This peptide was brought up to a 100 μM solution in PBS. This solution is then injected over the activated cell at 2 μL/min for 10 min. After injection one measures the change in RUs by marking the RUs at t=0 and t=final and subtracting. This gives the total RU change, which is related to the total mass of peptide successfully coupled to the CM5 surface. The sensorgram is then altered to flow across all four cells on the CM5 chip at 5 μL/min PBS. A solution of 1 M ethanolamine hydrochloride-NaOH pH 8.5 (Amine coupling kit, Biacore—BR-100-50) is injected at […] for 7 min. The peptide is immobilized at a density of 40 fmol/mm^2. The chip is equilibrated overnight in PBS+0.05% azide at 20 μL/min.
IL-1 R is expressed in baculovirus-infected TN-5B1-4 insect cells (High Five) and purified using standard procedures. To determine an appropriate constant concentration of protein to use, a protein titration is first performed. A dilution series of the protein is typically performed to produce seven protein solutions having final concentrations of from 300 nM, 100 nM, 33 nM, 11 nM, 3.7 nM, 1.2 nM, and 0.41 nM in PBS+0.05% azide, and an eighth solution is used as a PBS-only baseline. The protein solutions are injected from lowest concentration to highest at 40 μL/min for 1 min. The SPR software method includes a 1 min wash before injection, the injection and then a 3 min wash after the injection.
These dilutions series are analyzed by BIAevaluation software version 3.0. Sensorgrams are plotted for protein binding to the immobilized peptide cell. The sensorgrams are modified by subtracting the sensorgrams for the appropriate protein dilutions over cell 1 (a blank cell). This subtraction step removes any RU changes that might occur due to nonspecific interactions between the protein and the chip itself or refractive changes in the buffer. Finally, the eight sensorgrams produced from the protein dilution series are zeroed at the average of their starting RUs. Then the sensorgram produced by injecting PBS only is subtracted to reveal the final sensorgrams used to determine relative binding.
To determine KdSPR for the protein, the protein concentration is plotted on the X-axis, while the fraction bound at the plateau of the injection is plotted on the Y-axis. The curve is then analyzed via nonlinear regression analysis (Kaleidagraph, Synergy Software). […] One wants to keep protein constant and non-saturated to be assured of not having an excess of protein in solution. For this protein, 30 nM was chosen. […]

T1 sequence (P60568 21-153): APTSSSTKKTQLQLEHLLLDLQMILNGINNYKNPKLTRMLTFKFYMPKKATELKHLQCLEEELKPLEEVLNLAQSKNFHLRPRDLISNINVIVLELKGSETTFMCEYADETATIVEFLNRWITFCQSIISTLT

Consider `COCCNC(=O)[C@@H]1CCCN1C(=O)c1cc2ccccc2s1` [Compound 1], for which the Kd on immobilized IL-2 (FIG. 7 sensorgrams, 0-500 μM of compound over immobilized IL-2, read-out: apparent Kd) was roughly 175 µM; on immobilized IL-2 (dose-response plot of FIG. 9, absence of 2c, read-out: Kd for binding IL-2), 210 µM. For the same compound, on immobilized IL-2 (constant 50 μM of 2c, immobilized IL-2, FIG. 9, read-out: IC50 inhibiting the binding of 2c), the IC50 came out at 185 µM.

In the case of `N=C(N)N[C@@H](C(=O)NCC(=O)N1CCC(c2cc(-c3ccc(O)cc3Cl)[nH]n2)CC1)C1CCCCC1` [Compound 16], on immobilized IL-2 (Example 11, immobilized interleukin-2, read-out: apparent Kd in SPR experiments), the Kd stood at 5 µM.

Consider `COCC(=O)NC1CSc2ccccc2C1=O` (stereo not shown) [Compound 20], for which the “Kd,SPR IL-2” value at immobilized IL-2 (immobilized IL-2, no other compound) was “Inactive”.

Take `NC(=O)CC[C@H](NC(=O)[C@H](Cc1ccc(OP(=O)(O)O)cc1)NC(=O)[C@H](Cc1ccc2ccccc2c1)NC(=O)Cc1ccc(O)cc1)C(=O)N1CCN(C(=O)Cc2ccc(O)cc2)CC1` [Compound 21]: the half-maximal inhibitory concentration (IC50) in test [1] is 10.5 µM.

Consider `NC(=O)c1cccc(NC(=O)CCC(=O)NCCc2c[nH]c3ccccc23)c1` [Compound 22], for which, in test [1] (inhibition of binding of IL-1 R to the immobilized peptide CETPFTWEESNAYYWQPYALPL), the IC50SPR entry is “Inactive”.

Turning to `NC(=O)c1cccc(NC(=O)CCC(=O)Nc2ccc3[nH]ccc3c2)c1` [Compound 23], the half-maximal inhibitory concentration (IC50) in test [1] was 560 µM.

Take `NC(=O)Cc1cccc(NC(=O)c2cccc(NC(=O)c3cc4cccc(O)c4cc3O)c2)c1` [Compound 24]: the IC50 in test [1] stood at 95 µM.

Turning to `NC(=O)Cc1ccc(NC(=O)NCc2ccc(C3=CN=C(N)NC3)cc2)cc1` [Compound 25], the IC50 in test [1] came out at 240 µM.

What is called IC50 is the midpoint of a concentration-inhibition curve.

These data come from US20030186464A1, “Surface plasmon resonance methods” (priority 2002, published 2003).
